Experimental findings from US11807627B2, “Morphic forms of complement factor D inhibitors” (priority 2018, dated 2023) are described below.

Type in all cases: physicochemical
Data set [1] is described as follows: Differential scanning calorimetry (DSC). As to conditions: for DSC: Melting: onset; for DSC: Melting / DSC: Melting (peak): Table 27A. The protocol:
DSC was performed using a TA Instruments 2920 or Q2000 differential scanning calorimeter. Temperature calibration was performed using NIST-traceable indium metal. The sample was placed into an aluminum DSC pan, covered with a lid, and the weight was accurately recorded. A weighed aluminum pan configured as the sample pan was placed on the reference side of the cell. The method code on the thermogram is an abbreviation for the start and end temperature as well as the heating rate; e.g., -30-250-10 means “from −30° C. to 250° C., at 10° C./min”. The following table summarizes the abbreviations used in each image for pan configurations: […]

A short description of data set [2]: Competitive slurries (Example 11). The protocol: About 10 mg of Form A, Form B and Form J were weighed separately and the solids were combined into one vial. An appropriate volume of selected solvent was then added to form a slurry. Slurries were then agitated under ambient or elevated temperatures for about 48 hours. Post agitation, solids were isolated using centrifuge filtration and XRPD analysis was collected. Table 23 below details selected solvent systems and volumes used.
Solvent was re-introduced (volumes as per Table 24) to the samples and the samples were agitated for a further 72 hours as no single polymorphic form was returned from the experiments after 48 hours agitation. Solids were isolated using centrifuge filtration and XRPD analysis was collected.
Samples were repeated in 2-propanol and 2-propanol/heptane (70/30% v/v) at 60° C. using the above procedure. Samples were agitated for 24 hours and solvent volumes can be found in Table 24 below. […] Isolation of single forms via competitive slurrying appeared to be solvent dependent, as Forms B and J were produced from acetone and acetonitirile, respsectively. […] Both Forms A and B could be isolated from competitive slurrying experiments from different solvent systems but neither was exclusively predominant at a specific temperature.
An additional competitive slurry experiment was conducted. Approximately 20 mg of Form A and Form B were weighed into separate vials. […]

A short description of another data set: Thermal stability by TGA. As to conditions: for Thermal events from SSCI report: mass/weight loss: up to 250° C. The procedure: TG analyses were performed using a TA Instruments Q5000 IR thermogravimetric analyzer. Temperature calibration was performed using nickel and Alumel™. Each sample was placed in an aluminum pan. The sample was hermetically sealed, the lid pierced, then inserted into the TG furnace. The furnace was heated under nitrogen. The method code on the thermogram is an abbreviation for the start and end temperature as well as the heating rate; e.g., […] means “from 25° C. to 350° C., at 10° C./min”.

The nature of data set [3]: Thermogravimetric/differential thermal analysis (TG/DTA). The protocol: Approximately, 5 mg of material was weighed into an open aluminium pan and loaded into a simultaneous thermogravimetric/differential thermal analyzer (TG/DTA) and held at room temperature. The sample was then heated at a rate of 10° C./min from 20° C. to 400° C. during which time the change in sample weight occurred was recorded along with any differential thermal events (DTA). Nitrogen was used as the purge gas at a flow rate of 300 cm^3/min.

A short description of data set [4]: Hygroscopicity / dynamic vapour sorption (DVS). The settings on record: for DVS: hygroscopicity: Table 27A. The procedure:
(§1) Approximately, 10-20 mg of sample were placed into a mesh vapour sorption balance pan and loaded into a DVS Intrinsic dynamic vapour sorption balance by Surface Measurement Systems. The sample was subjected to a ramping profile from 40-90% relative humidity (RH) at 10% increments, maintaining the sample at each step until a stable weight had been achieved (dm/dt 0.004%, minimum step length 30 minutes, maximum step length 500 minutes) at 25° C. After completion of the sorption cycle, the sample was dried using the same procedure to 0% RH and then a second sorption cycle back to 40% RH. Two cycles were performed. The weight change during the sorption/desorption cycles were plotted, allowing for the hygroscopic nature of the sample to be determined. XRPD analysis was then carried out on any solid retained.
as §1, with “Approximately, 10” for “Approximately, 10-20”, “sample was” for “sample were”, “a DVS-1” for “a DVS Intrinsic”

Data set [5] can be described thus: Storage stability of Compound 3 forms (80° C., 40° C./75% RH, 25° C./60% RH, ambient). As to conditions: for 1 week stability: 40° C./75% RH XRPD (uncapped): WC = weakly crystalline. The protocol: No changes by XRPD or HPLC purity were observed when the material was stored at 40° C./75% RH, 80° C. or under ambient conditions.

For `CC(=O)c1nn(CC(=O)N2[C@H](C(=O)Nc3nc(Br)ccc3C)C[C@@]3(C)C[C@@H]23)c2ccc(-c3cnc(C)nc3)cc12` [Compound 3 Form A], the “Thermal events from SSCI report: Melt” value in data set [1] (SSCI report) is “Melt 133-150 °C”. Moreover, in data set [1], the “DSC: Melting” value is “Melting 138 °C (peak” and the “DSC: Melting (peak)” value turned out to be 151.4° C.). Further, the “Relative stability in competitive slurry” value in data set [2] (Form A, Form B and Form J, conversion of Form B to Form A in acetone over 72 hours) was “may be the most stable form”. For the same molecule, the “Thermal events from SSCI report: mass/weight loss” value in “Thermal stability by TGA” is reported as 0.8% mass loss. Moreover, in data set [3] (Table 22B), the “Onset Temp: Melting” value is recorded as 139.4, melting ° C; the “Onset Temp: decomposition” value is 209.0 °C; the “Onset Temp: melting (second event)” value is 153.9, ° C. In addition, in data set [3] (Table 27A), the “TG/DTA: Melting” value was “Melting 139.4 °C”, the “TG/DTA: decomposition” value was “decomposition 209 °C” and the “TG/DTA: melting (second event)” value is reported as “melting 153.9° C.,”. The “Mass loss within the TG trace” value in data set [3] (up to 250° C.) is 0.8%. Also, in data set [4] (25° C.), the “DVS analysis: hygroscopic nature” value is reported as “hygroscopic”. The “DVS: hygroscopicity” value in data set [4] was “Hygroscopic”. Moreover, in data set [4] (at 90% RH, 25° C.), the DVS total uptake is recorded as 6.9%. In data set [4] (at / up to 90% RH), the “DVS uptake as equivalents of water” value is reported as 2.5 equiv. water. In data set [4] (between 50-60% RH), the DVS sharp uptake amounted to 3.0% and the “DVS uptake as equivalents of water” value is 1.0 equiv. water. For the same molecule, in data set [5] (1 week), the “1 week stability: 40° C./75% RH HPLC (uncapped)” value is 99.7% (by % (by relative area), the “1 week stability: 80° C. HPLC (capped)” value is recorded as 99.7% (by % (by relative area), the “1 week stability: 80° C. XRPD (capped)” value is reported as “Form A” and the “1 week stability: 40° C./75% RH XRPD (uncapped)” value is recorded as “WC Form A”. In data set [5] (25° C./60% RH, capped vial), the “Stability: form by XRPD after storage” value was “Form A”. For the same molecule, in data set [5] (40° C./75% RH (uncapped)), the “Stability: form by XRPD after storage” value was “predominantly Form A” and the “Stability: purity change after storage” value is “no purity change”. The “Stability: form by XRPD after storage (repeat study)” value in data set [5] (40° C./75% RH, capped and uncapped vials) is “weakly crystalline (WC) Form A”. For the same molecule, in data set [5] (80° C.), the “Stability: purity by HPLC (relative area)” value was “no reduction in purity”.

Turning to `CC(=O)c1nn(CC(=O)N2[C@H](C(=O)Nc3nc(Br)ccc3C)C[C@@]3(C)C[C@@H]23)c2ccc(-c3cnc(C)nc3)cc12` [Compound 3, (1R,3S,5R)-2-(2-(3-acetyl-5-(2-methylpyrimidin-5-yl)-1H-indazol-1-yl)acetyl)-N-(6-bromo-3-methylpyridin-2-yl)-5-methyl-2-azabicyclo[3.1.0]hexane-3-carboxamide], the “Thermal Stability by TGA” value in the data set “Thermal stability by TGA” (to 250° C.) is ~0.8% wt loss to 250 °C. The Hygroscopicity entry in data set [4] is “Non-hygroscopic”. Besides, the “Hygroscopicity: moisture uptake” value in data set [4] (at 60% RH) is less than 5%.

As to `CC(=O)c1nn(CC(=O)N2[C@H](C(=O)Nc3nc(Br)ccc3C)C[C@@]3(C)C[C@@H]23)c2ccc(-c3cnc(C)nc3)cc12` [Form B], the “Thermal events from SSCI report: thermal event temperature” value in data set [1] (SSCI report, event not named) was approximately 176 °C. For the same molecule, in data set [1], the “DSC: Melting” value is “Melting 178.4 °C” and the “DSC: Melting (peak)” value was “(peak 186.3° C.)”. Besides, the “Relative stability in competitive slurry” value in data set [2] (Form A and Form B in saturated Compound 3 solutions, ambient and elevated temperature, about 2 weeks) is reported as “likely the most thermodynamically stable form”. Further, the “Thermal events from SSCI report: mass/weight loss” value in “Thermal stability by TGA” stood at 1.3%. Besides, the “Onset Temp: Melting” value in data set [3] (Table 22B) was “Melting 179.8 °C”. Further, the “TG/DTA: Melting” value in data set [3] (Table 27A) was “Melting 178.4 °C”. Besides, the “DVS analysis: hygroscopic nature” value in data set [4] (25° C.) was “slightly hygroscopic”. Further, the “DVS: hygroscopicity” value in data set [4] was “Slightly hygroscopic”. Also, the “DVS uptake as equivalents of water” value in data set [4] (at / up to 90% RH) came out at 0.1 equiv. water. The DVS uptake in data set [4] (up to 90% RH) is 0.26 wt %. Further, in data set [5] (1 week), the “1 week stability: 40° C./75% RH HPLC (uncapped)” value was 99.8% (by % (by relative area), the “1 week stability: 80° C. HPLC (capped)” value is reported as 99.9% (by % (by relative area), the “1 week stability: 80° C. XRPD (capped)” value is “Form B” and the “1 week stability: Ambient conditions HPLC (capped)” value is 99.8% (by % (by relative area). In addition, in data set [5] (1 week), the “1 week stability: Ambient conditions XRPD (capped)” value is recorded as “Form B” and the “1 week stability: 40° C./75% RH XRPD (uncapped)” value is listed as “Form B”. The “Stability: changes by XRPD or HPLC purity” value in data set [5] (stored at 40° C./75% RH, 80° C. or under ambient conditions) is given as “No changes”.
